These are literature values, as cited in article PMC9255981 (The Oncologist, 2022).

The data set concerns patients. Particulars: phase I study ref [1],[2].

For the compound `C=CC(=O)N1CCN(c2nc(=O)n(-c3c(C)ccnc3C(C)C)c3nc(-c4c(O)cccc4F)c(F)cc23)[C@@H](C)C1` [sotorasib], the “Myalgia, regardless of causality” value is 10 % of patients; the “blood CPK increase” value is 3.9%; the “most frequent treatment-related AEs (>10%)” value was “diarrhea, AST increased, and ALT increased”. Also, under “all events”, the “grade of blood CPK increase events” value is 1.
